Calls of active or inactive are those of the source.
What was measured:
[1] = molecular target: Peroxisome proliferator-activated receptor gamma/Nuclear receptor coactivator 1 (Homo sapiens, UniProt P37231); test: TR-FRET dose response biochemical High Throughput Screening assay for agonists of the steroid receptor coactivator 1 (SRC-1) recruitment by the peroxisome proliferator-activated receptor gamma (PPAR gamma): non-selective agonists. [Related pubchem assays (depositor defined):AID1300, AID1808, AID504735, AID631]; assay type: protein assay
[2] = molecular target: Peroxisome proliferator-activated receptor gamma/Nuclear receptor coactivator 3 (Homo sapiens, UniProt P37231); test: TR-FRET dose response biochemical High Throughput Screening assay for agonists of the steroid receptor coactivator 3 (SRC-3) recruitment by the peroxisome proliferator-activated receptor gamma (PPAR gamma): non-selective agonists. [Related pubchem assays: 1301 (Confirmation screen.), 1048 (Primary screen.)]; assay type: functional
[3] = molecular target: Peroxisome proliferator-activated receptor gamma/Nuclear receptor coactivator 2 (Homo sapiens, UniProt P37231); test: TR-FRET dose response biochemical High Throughput Screening assay for agonists of the steroid receptor coactivator 2 (SRC-2) recruitment by the peroxisome proliferator-activated receptor gamma (PPAR gamma): non-selective agonists. [Related pubchem assays: 1297, 1032 ]; assay type: functional
[4] = molecular target: Photoreceptor-specific nuclear receptor (Homo sapiens, UniProt Q9Y5X4); assay type: functional, cell-based;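 also: CHO-S cells with Gal4-NCOR and VP16-NR2E3 two-hybrid luciferase reporter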
Photoreceptor-specific nuclear receptor, sequence (Q9Y5X4 whole entry, the tested form may be a part): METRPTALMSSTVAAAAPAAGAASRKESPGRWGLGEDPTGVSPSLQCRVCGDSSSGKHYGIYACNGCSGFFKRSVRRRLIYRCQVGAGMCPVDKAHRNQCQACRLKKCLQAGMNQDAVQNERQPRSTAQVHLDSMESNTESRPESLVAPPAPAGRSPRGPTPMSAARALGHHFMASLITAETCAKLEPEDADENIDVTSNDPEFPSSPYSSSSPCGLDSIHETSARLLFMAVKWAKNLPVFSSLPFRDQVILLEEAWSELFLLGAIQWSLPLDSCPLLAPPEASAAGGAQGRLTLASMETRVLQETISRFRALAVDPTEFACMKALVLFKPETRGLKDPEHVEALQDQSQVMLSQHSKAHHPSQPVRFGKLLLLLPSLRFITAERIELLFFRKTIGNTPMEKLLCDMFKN

[5] = molecular target: SWI/SNF-related matrix-associated actin-dependent regulator of chromatin subfamily A member 2 (Homo sapiens, UniProt P51531); test: Luminescence-based cell-based high throughput dose response assay to identify activators of the function of SWI/SNF related, matrix associated, actin dependent regulator of chromatin, subfamily a, member 2 (SMARCA2, BRM).; assay type: functional
[6] = Counterscreen for activators of the function of SWI/SNF related, matrix associated, actin dependent regulator of chromatin, subfamily a, member 2 (SMARCA2, BRM): Luminescence-based cell-based high throughput dose response assay to identify non-selective compounds using the VP16 reporter assay.; assay type: functional
[7] = PAX2 cell-based inhibition, dose response, selectivity assay for PAX8 inhibitor project, plate reader, dry powder samples (AID 743048); assay type: functional;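 also: HEK293 cells carrying a WT1 promoter luciferase reporter driven by expressed Pax2; potency is for inhibition of Pax2 driven reporter signal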
[8] = NIH:OVCAR-3 ovarian cancer cell cytotoxicity, dose response, PAX8 inhibitor project, plate reader, dry powder samples (AID 743044); assay type: functional, cell-based
[9] = IGROV1 ovarian cancer cell cytotoxicity, dose response, PAX8 inhibitor project, plate reader, dry powder samples (AID 743043); assay type: functional, cell-based; conditions: IGROV-1
[10] = cytotoxicity in COV434 cells, dose response, cytotoxicity control for PAX8 inhibitor project, cell-based, plate reader, dry powder, SA7 (AID 743145); assay type: functional
[11] = cytotoxicity in OV-90 ovarian cancer cells, dose response, PAX8 inhibitor project, cell-based, plate reader, dry powder, SA8 (AID 743149); assay type: functional
[12] = cytotoxicity dependent on PAX8, dose response, cell-based, plate reader, dry powder (AID 743049); assay type: functional
[13] = test system: INS1; test: beta cell apoptosis inhibitors, cytokine rescue, dose response, luminescence, retest (AID 449756); assay type: functional, cell-based; conditions: Rattus norvegicus;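 also: cell death triggered by IL-1 beta plus TNF-alpha plus IFN-gamma mixture; protective hits raise ATP signal compared with cytokine alone wells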
[14] = Shn3 3'UTR reporter inhibitors, dose response, cell-based, Clone20 osteoblasts, firefly luciferase, cherry-picked (AID 624132); assay type: functional;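 also: firefly luciferase luminescence from reporter carrying the Shn3 3'UTR in osteoblasts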
[15] = HepG2 cell cytotoxicity, dose response, cytotoxicity control for Shn3 inhibitor project, CellTiter-Glo, cherry-picked (AID 624134); assay type: functional, cell-based
[16] = control 3'UTR Renilla luciferase suppression, dose response, counter-screen for Shn3 inhibitor project, cell-based, Clone20-Shn3RL, cherry-picked (AID 624133); assay type: functional
[17] = molecular target: T1, Disintegrin and metalloproteinase domain-containing protein 17 (Homo sapiens, UniProt P78536); test: exosite inhibitors of ADAM17, dose response, biochemical (AID 743260)
T1 sequence (P78536 whole entry, the tested form may be a part): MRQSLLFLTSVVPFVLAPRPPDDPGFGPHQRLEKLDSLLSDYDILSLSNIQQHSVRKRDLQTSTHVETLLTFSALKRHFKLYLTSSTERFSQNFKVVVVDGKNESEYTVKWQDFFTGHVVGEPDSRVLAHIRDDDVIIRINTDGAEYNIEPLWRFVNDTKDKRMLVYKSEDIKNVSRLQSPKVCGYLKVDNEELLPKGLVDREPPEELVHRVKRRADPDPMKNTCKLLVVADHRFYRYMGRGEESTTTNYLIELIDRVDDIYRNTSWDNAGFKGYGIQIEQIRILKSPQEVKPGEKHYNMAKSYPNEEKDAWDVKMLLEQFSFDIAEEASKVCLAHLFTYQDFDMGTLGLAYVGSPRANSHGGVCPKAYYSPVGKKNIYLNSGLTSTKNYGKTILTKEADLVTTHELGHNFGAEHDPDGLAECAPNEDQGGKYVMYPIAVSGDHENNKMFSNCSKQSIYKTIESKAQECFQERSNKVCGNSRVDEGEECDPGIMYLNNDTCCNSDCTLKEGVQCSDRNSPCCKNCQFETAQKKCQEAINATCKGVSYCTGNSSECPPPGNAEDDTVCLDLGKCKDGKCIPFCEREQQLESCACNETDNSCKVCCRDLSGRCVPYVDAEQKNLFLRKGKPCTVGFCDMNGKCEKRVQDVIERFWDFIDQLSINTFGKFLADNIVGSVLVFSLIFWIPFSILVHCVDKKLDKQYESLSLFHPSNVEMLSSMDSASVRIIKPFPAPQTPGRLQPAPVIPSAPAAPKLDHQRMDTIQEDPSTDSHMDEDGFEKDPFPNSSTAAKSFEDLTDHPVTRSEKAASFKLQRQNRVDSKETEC

[18] = ADAM10 protease inhibitors, dose response, selectivity assay for ADAM17 exosite inhibitor project, biochemical, FRET peptide substrate, recombinant human ADAM10 (AID 743259);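 also: ADAM10 enzyme cleaving a FRET peptide substrate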
[19] = molecular target: Cytochrome P450 2C19 (Homo sapiens, UniProt P33261); test: Cytochrome panel assay with activity outcomes. Panel member name: p450-cyp2c19 Compounds with AC50 equal or less than 10 uM are considered active; assay type: functional; conditions: read-out: AC50
Cytochrome P450 2C19, sequence (P33261 whole entry): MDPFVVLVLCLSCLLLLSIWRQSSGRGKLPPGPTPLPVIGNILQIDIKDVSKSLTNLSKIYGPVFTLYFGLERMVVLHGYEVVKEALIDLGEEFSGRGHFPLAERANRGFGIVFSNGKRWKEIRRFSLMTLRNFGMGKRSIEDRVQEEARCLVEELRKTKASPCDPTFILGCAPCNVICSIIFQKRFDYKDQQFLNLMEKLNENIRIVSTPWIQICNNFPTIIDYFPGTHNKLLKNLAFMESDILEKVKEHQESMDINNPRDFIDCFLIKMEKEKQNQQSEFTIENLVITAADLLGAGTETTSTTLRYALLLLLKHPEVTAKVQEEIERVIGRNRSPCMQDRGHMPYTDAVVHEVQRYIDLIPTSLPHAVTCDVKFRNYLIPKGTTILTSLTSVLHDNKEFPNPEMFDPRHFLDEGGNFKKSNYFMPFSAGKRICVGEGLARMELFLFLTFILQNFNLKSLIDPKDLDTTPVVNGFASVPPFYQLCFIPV

[20] = molecular target: Beta-galactosidase (Escherichia coli, UniProt Q8VNN2); test: Dose response counterscreen for EBI2 assay utilizing the enzyme, b-galactosidase.; assay type: functional
[21] = molecular target: T2, Cytochrome P450 1A2 (Homo sapiens, UniProt P05177);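 also: PubChem cytochrome P450 panel assay, CYP1A2 panel member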
T2 sequence (P05177 whole entry): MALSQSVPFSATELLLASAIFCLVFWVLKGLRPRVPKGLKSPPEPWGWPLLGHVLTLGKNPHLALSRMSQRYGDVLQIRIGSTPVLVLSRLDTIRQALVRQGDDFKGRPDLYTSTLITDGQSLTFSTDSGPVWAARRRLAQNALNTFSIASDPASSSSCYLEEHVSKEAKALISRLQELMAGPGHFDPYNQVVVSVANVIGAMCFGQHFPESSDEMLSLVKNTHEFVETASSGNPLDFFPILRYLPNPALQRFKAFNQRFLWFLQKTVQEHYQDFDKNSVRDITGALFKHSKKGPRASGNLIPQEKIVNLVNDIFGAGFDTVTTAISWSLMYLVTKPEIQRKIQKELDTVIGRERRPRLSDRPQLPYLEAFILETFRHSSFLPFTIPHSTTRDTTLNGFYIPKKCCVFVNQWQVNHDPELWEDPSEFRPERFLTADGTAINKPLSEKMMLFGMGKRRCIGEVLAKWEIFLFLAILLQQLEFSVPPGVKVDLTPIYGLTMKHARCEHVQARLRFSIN

[22] = molecular target: Major prion protein (Homo sapiens, UniProt P04156); assay type: functional, cell-based
[23] = cells
[24] = inhibitors of intracellular T. cruzi replication, confirmation, NIH3T3 host cells, beta-gal luminescence (AID 2044); assay type: functional, cell-based;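 also: intracellular parasites grown in NIH/3T3 mouse fibroblasts as host cells; luminescent beta-galactosidase reporter signal from transgenic T. cruzi replicating inside host cells; inhibitors lower the luminescence signal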
[25] = cytotoxicity toward NIH3T3 fibroblasts, dose response, counter-screen, cell-based, ATP luminescence, mouse fibroblasts (AID 2010); assay type: functional;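 also: cells exposed to compound for about 90 hours before reading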
[26] = ADAM10 inhibitors, peptide cleavage, dose response, biochemical, QFRET (AID 743254);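 also: ADAM10 enzyme with the DM2 quenched FRET peptide as substrate; EDANS fluorescence gain as the protease cuts the substrate; inhibitor potency against ADAM10 proteolytic activity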
[27] = molecular target: T1, Disintegrin and metalloproteinase domain-containing protein 17; test: ADAM17 protease inhibitors, dose response, counter-screen for ADAM10 exosite inhibitor project, biochemical, quenched FRET substrate (AID 743253)
[28] = molecular target: Fructose-bisphosphate aldolase (Mycobacterium tuberculosis, UniProt P9WQA3); test: Fluorescence-based biochemical high throughput dose response assay for inhibitors of the fructose-bisphosphate aldolase (FBA) of M. tuberculosis.; assay type: functional
[29] = molecular target: T3, Caspase-6 (Homo sapiens, UniProt P55212); test: human caspase-6 inhibitors, dose response, biochemical, VEID-R110 fluorescence, dry powder retest (AID 743332)
T3 sequence (P55212 whole entry): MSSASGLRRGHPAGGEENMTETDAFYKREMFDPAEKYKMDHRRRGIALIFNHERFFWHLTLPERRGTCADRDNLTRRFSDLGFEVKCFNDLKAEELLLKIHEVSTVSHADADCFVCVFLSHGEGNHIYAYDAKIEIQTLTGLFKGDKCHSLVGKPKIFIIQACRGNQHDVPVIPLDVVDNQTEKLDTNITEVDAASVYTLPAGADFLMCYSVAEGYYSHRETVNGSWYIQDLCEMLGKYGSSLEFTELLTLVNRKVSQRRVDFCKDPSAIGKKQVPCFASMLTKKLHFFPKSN

[30] = molecular target: Oxysterols receptor LXR-beta (Homo sapiens, UniProt P55055); assay type: functional, cell-based;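 also: agonist activity at LXR measured by a cell-based luminescence readout across a dose range, run as a counterscreen for daf-12 agonists; HEK293 cells with Gal4-LXR fusion and GAL4-driven luciferase reporter; potency for activation of Gal4-LXR reporter so compounds are agonists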
Oxysterols receptor LXR-beta, sequence (P55055 whole entry, the tested form may be a part): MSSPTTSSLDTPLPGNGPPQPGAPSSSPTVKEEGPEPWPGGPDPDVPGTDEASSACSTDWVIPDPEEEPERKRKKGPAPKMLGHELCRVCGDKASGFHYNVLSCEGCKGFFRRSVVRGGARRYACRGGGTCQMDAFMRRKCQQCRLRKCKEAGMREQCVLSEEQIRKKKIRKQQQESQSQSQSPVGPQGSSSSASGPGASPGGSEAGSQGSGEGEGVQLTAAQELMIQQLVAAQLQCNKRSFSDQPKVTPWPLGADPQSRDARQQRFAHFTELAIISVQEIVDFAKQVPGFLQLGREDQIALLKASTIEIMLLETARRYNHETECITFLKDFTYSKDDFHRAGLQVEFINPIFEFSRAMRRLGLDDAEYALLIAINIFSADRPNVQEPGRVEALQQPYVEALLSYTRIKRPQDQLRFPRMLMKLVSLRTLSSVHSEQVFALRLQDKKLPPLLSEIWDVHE

[31] = molecular target: fMet-Leu-Phe receptor (Homo sapiens, UniProt P21462); test: FPR ligands, dose response (AID 519); assay type: functional
fMet-Leu-Phe receptor, sequence (P21462 whole entry): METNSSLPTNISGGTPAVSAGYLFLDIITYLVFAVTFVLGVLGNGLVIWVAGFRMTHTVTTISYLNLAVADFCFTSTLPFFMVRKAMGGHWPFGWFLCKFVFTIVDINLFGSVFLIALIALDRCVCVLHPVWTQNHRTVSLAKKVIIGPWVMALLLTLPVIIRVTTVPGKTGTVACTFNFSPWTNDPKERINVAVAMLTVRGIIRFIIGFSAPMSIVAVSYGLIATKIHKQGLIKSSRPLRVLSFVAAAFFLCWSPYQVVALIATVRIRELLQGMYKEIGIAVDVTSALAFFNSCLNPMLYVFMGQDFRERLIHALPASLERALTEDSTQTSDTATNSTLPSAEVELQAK

[32] = A549 cell cytotoxicity, dose response, cytotoxicity control, plate reader, cherry-pick, antagonist series (AID 743412); assay type: functional, cell-based
[33] = LGR2 antagonists, dose response, cell-based, HEK293, CRE-luciferase reporter, cherry pick (AID 743342); assay type: functional
[34] = MC4R antagonists, dose response, counter-screen for LGR2 antagonist project, cell-based, plate reader, cherry pick (AID 743444); assay type: functional;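 also: transfected HEK 293 cells stimulated with alpha-MSH peptide; potency of inhibitors of the alpha-MSH evoked signal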
[35] = HepG2 cell cytotoxicity, dose response, cytotoxicity control, ATP luminescence, cherry-pick, activator set 2 (AID 1053143); assay type: functional, cell-based
[36] = molecular target: Albumin (Bos taurus, UniProt P02769); test: Counterscreen for inhibitors of T-cell receptor (TCR)-CD3 interaction: Fluorescence-based biochemical high throughput dose response assay to identify inhibitors of T-cell receptor (TCR)-CD3 interaction using a TAMRA-labeled BSA probe.; assay type: functional
Albumin, sequence (P02769 whole entry): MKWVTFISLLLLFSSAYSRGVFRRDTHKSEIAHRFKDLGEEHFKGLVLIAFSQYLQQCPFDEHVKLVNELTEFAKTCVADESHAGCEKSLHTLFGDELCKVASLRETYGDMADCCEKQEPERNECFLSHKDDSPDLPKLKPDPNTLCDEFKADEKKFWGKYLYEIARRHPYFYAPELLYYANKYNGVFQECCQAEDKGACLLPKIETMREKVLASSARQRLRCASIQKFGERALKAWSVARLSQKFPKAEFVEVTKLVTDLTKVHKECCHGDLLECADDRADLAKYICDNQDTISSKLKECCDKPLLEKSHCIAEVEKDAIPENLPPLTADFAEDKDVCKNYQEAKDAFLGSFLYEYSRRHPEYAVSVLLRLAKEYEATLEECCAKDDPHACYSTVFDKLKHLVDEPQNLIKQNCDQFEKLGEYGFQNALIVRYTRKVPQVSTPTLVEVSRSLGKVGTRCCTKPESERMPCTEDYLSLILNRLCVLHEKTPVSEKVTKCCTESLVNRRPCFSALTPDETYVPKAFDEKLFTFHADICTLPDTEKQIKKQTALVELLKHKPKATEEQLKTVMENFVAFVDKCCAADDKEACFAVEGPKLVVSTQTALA

[37] = Late stage assay provider results from the probe development effort to identify selective inhibitors of heat shock protein 90 (HSP90): Absorbance-based cell proliferation assay in SKBR3 cells.; assay type: functional; conditions: SK-BR-3
[38] = Late stage assay provider results from the probe development effort to identify selective inhibitors of heat shock protein 90 (HSP90): Absorbance-based cell proliferation assay in MCF7 cells.; assay type: functional
[39] = molecular target: Paired box protein Pax-8 (Homo sapiens, UniProt Q06710); test: inhibitors of PAX8-driven TPO luciferase reporter, dose response, RMG-I cells, cherry-pick (AID 687027); assay type: functional, cell-based;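 also: luciferase reporter driven by Pax8 target thyroperoxidase promoter measured by SteadyGlo luminescence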
Paired box protein Pax-8, sequence (Q06710 whole entry): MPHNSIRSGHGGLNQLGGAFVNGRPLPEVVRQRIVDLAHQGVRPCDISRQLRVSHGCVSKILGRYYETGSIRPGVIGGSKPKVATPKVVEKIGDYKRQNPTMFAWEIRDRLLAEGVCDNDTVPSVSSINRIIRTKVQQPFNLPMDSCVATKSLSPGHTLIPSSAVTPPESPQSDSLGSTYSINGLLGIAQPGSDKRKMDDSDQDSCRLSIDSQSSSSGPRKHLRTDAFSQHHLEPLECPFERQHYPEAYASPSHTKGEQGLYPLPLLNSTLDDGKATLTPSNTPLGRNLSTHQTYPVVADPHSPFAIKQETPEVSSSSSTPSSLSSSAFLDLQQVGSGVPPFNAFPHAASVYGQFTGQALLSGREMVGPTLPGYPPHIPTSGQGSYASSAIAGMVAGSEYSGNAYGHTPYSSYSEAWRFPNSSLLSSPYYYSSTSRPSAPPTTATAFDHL

[40] = inhibitors of CMV-promoter luciferase reporter, dose response, counter-screen for Pax8 inhibitor project, cell-based, HEK293, luminescence, dry powder (AID 743020); assay type: functional
[41] = molecular target: 1-phosphatidylinositol 4,5-bisphosphate phosphodiesterase gamma-1 (Homo sapiens, UniProt P19174); test: Counterscreen for inhibitors of phospholipase C isozymes (PLC-B3): Fluorescence-based biochemical high throughput dose response assay to identify inhibitors of phospholipase C isozymes (PLC-gamma1).
1-phosphatidylinositol 4,5-bisphosphate phosphodiesterase gamma-1, sequence (P19174 whole entry): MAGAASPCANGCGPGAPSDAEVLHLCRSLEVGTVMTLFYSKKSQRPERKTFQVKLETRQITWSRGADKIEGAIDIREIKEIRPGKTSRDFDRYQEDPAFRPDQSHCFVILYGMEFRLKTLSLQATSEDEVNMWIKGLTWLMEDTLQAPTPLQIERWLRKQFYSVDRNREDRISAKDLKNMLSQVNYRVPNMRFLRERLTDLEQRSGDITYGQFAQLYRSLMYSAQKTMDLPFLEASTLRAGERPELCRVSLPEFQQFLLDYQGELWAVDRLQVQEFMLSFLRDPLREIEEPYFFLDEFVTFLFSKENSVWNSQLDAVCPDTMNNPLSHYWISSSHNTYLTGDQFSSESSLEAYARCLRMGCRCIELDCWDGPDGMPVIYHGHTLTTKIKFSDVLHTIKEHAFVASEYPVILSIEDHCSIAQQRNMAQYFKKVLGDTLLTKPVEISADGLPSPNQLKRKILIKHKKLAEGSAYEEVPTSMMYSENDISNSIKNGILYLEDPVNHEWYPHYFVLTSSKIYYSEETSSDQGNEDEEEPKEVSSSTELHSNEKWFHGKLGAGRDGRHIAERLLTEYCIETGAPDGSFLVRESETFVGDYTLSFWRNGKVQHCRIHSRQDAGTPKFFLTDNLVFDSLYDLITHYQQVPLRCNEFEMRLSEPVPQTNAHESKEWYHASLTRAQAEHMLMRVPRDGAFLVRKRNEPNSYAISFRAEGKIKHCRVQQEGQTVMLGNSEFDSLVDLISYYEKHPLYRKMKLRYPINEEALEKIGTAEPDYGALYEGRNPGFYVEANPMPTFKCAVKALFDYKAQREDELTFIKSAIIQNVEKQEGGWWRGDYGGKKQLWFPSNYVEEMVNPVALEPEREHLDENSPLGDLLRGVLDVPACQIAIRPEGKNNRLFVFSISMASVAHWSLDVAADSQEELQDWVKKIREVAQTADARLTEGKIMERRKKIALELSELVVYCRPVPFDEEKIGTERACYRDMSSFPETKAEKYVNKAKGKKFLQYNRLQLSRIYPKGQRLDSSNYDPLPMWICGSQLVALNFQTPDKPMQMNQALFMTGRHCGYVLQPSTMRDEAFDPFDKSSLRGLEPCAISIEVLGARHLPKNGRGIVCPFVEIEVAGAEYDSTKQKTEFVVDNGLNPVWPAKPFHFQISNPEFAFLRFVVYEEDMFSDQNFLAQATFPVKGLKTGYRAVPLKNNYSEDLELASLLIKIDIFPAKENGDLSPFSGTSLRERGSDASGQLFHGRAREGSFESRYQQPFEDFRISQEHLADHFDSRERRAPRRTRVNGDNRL

[42] = molecular target: 1-phosphatidylinositol 4,5-bisphosphate phosphodiesterase beta-3 (Homo sapiens, UniProt Q01970); test: Fluorescence-based biochemical high throughput dose response assay to identify inhibitors of phospholipase C isozymes (PLC-B3).

CCn1c(=O)cc(SCC(=O)Nc2ccc(C)cn2)c2ccccc21
EC50 [1]: > 79.4 µM (inactive) | EC50 [2]: > 79.4 µM (not active) | EC50 [3]: > 79.4 µM (not active) | IC50 [4]: 0.469 µM (active) | EC50 [5]: > 91.2 µM (inactive) | EC50 [6]: > 91.2 µM (inactive)

CN(C)CCCN(C(=O)CCOc1ccccc1)c1nc2c(F)cccc2s1
AC50 [7]: > 100 µM (inactive) | AC50 [8]: 44.9 µM (active) | AC50 [9]: 44.1 µM (active) | AC50 [10]: 22.8 µM (active) | AC50 [11]: 13.1 µM (active) | AC50 [12]: 10.8 µM (active)

Cc1cccc(Oc2cc(NC(=O)c3ccccc3)cc([N+](=O)[O-])c2)c1
AC50 [13]: 3.57 µM (active) | AC50 [14]: 3.09 µM (active) | AC50 [15]: 45.5 µM (active) | AC50 [16]: 13.6 µM (active) | IC50 [17]: > 69.5 µM (inactive) | IC50 [18]: > 69.5 µM (inactive)

CCOC(=O)N1CCN(C(=O)c2cc(-c3ccc(F)cc3)[nH]c2C)CC1
AC50 [19]: 10 µM (inconclusive) | IC50 [20]: > 80 µM (inactive) | AC50 [21]: 20 µM (inconclusive)

CN(C)S(=O)(=O)c1ccc(NC(=O)CSc2ncnc3ccccc23)cc1
IC50 [22]: 16.5 µM (inactive) | IC50 [23]: > 138 µM (inactive)

S=C(Nc1ccc(Nc2ccccc2)cc1)NC1CCCCCC1
EC50 [24]: 2.21 µM (active) | EC50 [25]: 29 µM (active) | IC50 [26]: > 7.72 µM (active) | IC50 [27]: > 69.5 µM (inactive)

CCOC(=O)N1CCc2cc(OC)c(OC)c3c2c1cc1cc(OC)c(OC)cc13
IC50 [28]: 2.7 µM (active)

N#Cc1ccc(C(=O)N2CCN(S(=O)(=O)c3ccccc3)CC2)cc1
AC50 [29]: > 70 µM (inactive)

Cn1c(NC(=O)CCC2CCCCC2)cc(=O)n(C)c1=O
EC50 [30]: > 67.5 µM (inactive)

COc1cc(C2C(C(=O)c3ccco3)=C(O)C(=O)N2CCc2ccccc2)ccc1O (configuration not stated)
Ki [31]: > 66.7 µM (inactive)

C[C@H]1CCCCO[C@@H](CN(C)C(=O)Nc2ccc(F)cc2)[C@@H](C)CN([C@@H](C)CO)C(=O)c2cc(NC(=O)C3CCCCC3)ccc2O1
AC50 [32]: 44.2 µM (active) | AC50 [33]: 3.88 µM (active) | AC50 [34]: 66 µM (active)

Cc1cc(NC(=O)c2ccco2)sc1C
AC50 [35]: 26 µM (active)

CC(C)(C)c1ccc(C(=O)NCC(=O)NNC(=O)c2ccccc2O)cc1
IC50 [36]: > 94.1 µM (inactive)

N#Cc1cc2ccc(OCCCCC(=O)O)cc2oc1=O
IC50 [37]: > 100 µM (inactive) | IC50 [38]: > 100 µM (inactive)

C[C@@H]1CCCCO[C@H](CN(C)Cc2ccc(Cl)c(Cl)c2)[C@@H](C)CN([C@@H](C)CO)C(=O)c2cc(NC(=O)Nc3ccccc3)ccc2O1
AC50 [39]: 4.29 µM (active) | AC50 [40]: 47.9 µM (active)

ONC(=Nc1ccc(Cl)cc1)c1ccccc1
IC50 [41]: > 122 µM (inactive) | IC50 [42]: > 122 µM (inactive)

— ChEMBL document CHEMBL1201862, “PubChem BioAssay data set” (2004)
